Source: ChEMBL document CHEMBL4419169, “Novel Ferroportin Inhibitors” (2018)

How the values were obtained:
Assay type in all cases: cell-based
Ferroportin [1] = molecular target: T1, Ferroportin (Homo sapiens, UniProt Q9NP59); assay: Inhibition of GFP-tagged human ferroportin expressed in HEK293 #354 cells assessed as induction of ferroportin internalization and degradation incubated overnight by FACS assay; conditions: read-out: EC50 (the source's name)
T1 sequence (Q9NP59 whole entry): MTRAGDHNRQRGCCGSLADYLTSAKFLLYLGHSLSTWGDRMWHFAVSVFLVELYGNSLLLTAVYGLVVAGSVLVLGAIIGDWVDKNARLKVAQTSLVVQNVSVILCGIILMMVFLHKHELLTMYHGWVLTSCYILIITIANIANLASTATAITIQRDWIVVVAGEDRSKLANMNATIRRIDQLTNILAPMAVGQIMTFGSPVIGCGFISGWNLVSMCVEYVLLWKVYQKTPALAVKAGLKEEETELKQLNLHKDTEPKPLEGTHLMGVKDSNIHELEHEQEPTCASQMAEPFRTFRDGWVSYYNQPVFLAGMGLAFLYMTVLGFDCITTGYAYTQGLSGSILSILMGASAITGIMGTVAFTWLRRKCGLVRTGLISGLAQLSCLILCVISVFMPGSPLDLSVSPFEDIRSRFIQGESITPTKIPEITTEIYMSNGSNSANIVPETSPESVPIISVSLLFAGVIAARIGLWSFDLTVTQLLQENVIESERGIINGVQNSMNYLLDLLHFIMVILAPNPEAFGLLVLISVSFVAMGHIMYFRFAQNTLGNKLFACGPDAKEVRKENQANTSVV

Ferroportin [2] = molecular target: T2, Ferroportin (Mus musculus, UniProt Q9JHI9); assay: Inhibition of ferroportin in mouse J774 cells assessed as reduction in binding of hepcidin to ferroportin pre-incubated for 15 mins before TMR-hepcidin addition and further incubated for 2 hrs by fluorescence based hepcidin internalization assay
T2 sequence (Q9JHI9 whole entry): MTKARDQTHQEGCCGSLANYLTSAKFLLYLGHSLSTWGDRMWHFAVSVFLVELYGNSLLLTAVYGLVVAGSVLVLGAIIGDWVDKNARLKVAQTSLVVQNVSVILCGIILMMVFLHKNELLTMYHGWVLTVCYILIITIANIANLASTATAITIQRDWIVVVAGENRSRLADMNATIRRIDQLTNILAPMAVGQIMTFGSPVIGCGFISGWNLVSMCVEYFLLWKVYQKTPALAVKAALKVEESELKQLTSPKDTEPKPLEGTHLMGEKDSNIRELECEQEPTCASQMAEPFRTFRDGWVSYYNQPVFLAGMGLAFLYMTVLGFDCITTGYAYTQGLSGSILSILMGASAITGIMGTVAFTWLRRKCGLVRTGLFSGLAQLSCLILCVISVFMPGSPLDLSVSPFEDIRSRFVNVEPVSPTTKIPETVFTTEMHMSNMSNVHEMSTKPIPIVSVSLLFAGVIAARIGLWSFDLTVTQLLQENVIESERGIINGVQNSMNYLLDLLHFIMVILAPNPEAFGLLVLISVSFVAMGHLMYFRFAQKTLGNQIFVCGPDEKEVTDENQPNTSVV

Ferroportin [3] = molecular target: T1, Ferroportin; assay: Inhibition of GFP-tagged human ferroportin expressed in HEK293 #354 cells assessed as reduction in Fpn-mediated iron efflux incubated overnight by iron regulatory element -driven beta-lactamase reporter gene assay

O=C(NCc1ncccc1F)c1cn(CCNCCc2nc3ccccc3[nH]2)nn1
DC50 (Ferroportin [1]): 69 nM | IC50 (Ferroportin [2]): 11 nM | EC50 (Ferroportin [3]): 170 nM
